Experimental findings from ChEMBL document CHEMBL3244389, “Cephalosporin degradations” (J Med Chem, 1977) are described below.

Series [1] is described as follows: Retardation factor of the compound in deionized water at 1 g at pH 3.3 after 90 mins by TLC analysis. The series is classed as physicochemical. The following applies: pH 3.3, 1.5 h.
Series [2] is described as follows: Drug degradation in deionized water assessed as 3-hydroxy-4-methyl-2(5H)-thiophenone level at 100 mg at pH 3.3 after 90 mins by IR/TLC analysis. The series is classed as physicochemical. The following applies: pH 3.3, 1.5 h.
Series [3] in a line: Drug degradation in deionized water assessed as 5,3-formyl-3,6-dihydro-6-phenyl-2,5(lH,4H)-pyrazinedione level at 100 mg at pH 3.3 after 90 mins by IR/TLC analysis. The class given is physicochemical. As to conditions: pH 3.3, 1.5 h.
Series [4] is described as follows: Drug degradation in oxygen-18 enriched water assessed as 5,3-formyl-3,6-dihydro-6-phenyl-2,5(lH,4H)-pyrazinedione level at 60 mg by mass spectroscopic analysis. As to conditions: in vivo.
Series [5] in a line: Drug recovery in Purdue-Wistar rat feces at 1.6 mg/ml, po after 24 hrs. As to conditions: faeces.
Series [6] can be described thus: Drug recovery in ICR mouse feces at 1.6 mg/ml, po after 24 hrs. The following applies: faeces.
The subject of the next series is Mus musculus. Briefly: Toxicity in po dosed ICR mouse. The series is classed as organism-based. The following applies: in vivo.

SMILES strings stand for the structures.

For `O=CC1NC(=O)C(c2ccccc2)NC1=O` (stereo not drawn), the Rf in series [1] is given as 0.78.
The compound `CC1=C(O)C(=O)SC1` registered a Rf in series [1] of 0.91.
Take `CC1CSC(C2NC(=O)C(c3ccccc3)NC2=O)N=C1C(=O)[O-].[Na+]` (stereo not drawn): the Stability result in series [2], in series [3] and in series [4] was “Unstable” each time.
As to `CC1=C(C(=O)O)N2C(=O)[C@@H](NC(=O)[C@H](N)c3ccccc3)[C@H]2SC1` [CEPHALEXIN ANHYDROUS], the dose excreted at 24 h in series [5] and in series [6] was 99% in each case.
`CC1=C(C(=O)O)N2C(=O)[C@@H](NC(=O)[C@H](N)c3ccccc3)[C@H]2SC1.O` [CEPHALEXIN] displayed an LD in the series on Mus musculus of more than 5000 mg/kg.
